Assay results from patent US20050070508A1, “Napthalene carboxamides and their derivatives useful as new anti-angiogenic agents” (AGOURON PHARMACEUTICALS, INC., priority 2003, published 2005).
pIC50, pKi: −log10 of the molar value.

How the values were obtained:
[1] = target: T1, human vascular endothelial growth factor receptor 2 (VEGF-R2) (Homo sapiens, UniProt P35968, DEL940-989/E990V); assay: VEGF-R2 coupled spectrophotometric assay (FLVK); assay type: biochemical; details: unphosphorylated VEGF-R2D50 (FLVK)
T1 construct: VEGF-R2D50 contains residues 806-939 and 990-1171; made in house; host or cells: baculovirus/insect cell system
T1 sequence (P35968 with tags, fused parts or gaps DEL940-989/E990V limits assumed): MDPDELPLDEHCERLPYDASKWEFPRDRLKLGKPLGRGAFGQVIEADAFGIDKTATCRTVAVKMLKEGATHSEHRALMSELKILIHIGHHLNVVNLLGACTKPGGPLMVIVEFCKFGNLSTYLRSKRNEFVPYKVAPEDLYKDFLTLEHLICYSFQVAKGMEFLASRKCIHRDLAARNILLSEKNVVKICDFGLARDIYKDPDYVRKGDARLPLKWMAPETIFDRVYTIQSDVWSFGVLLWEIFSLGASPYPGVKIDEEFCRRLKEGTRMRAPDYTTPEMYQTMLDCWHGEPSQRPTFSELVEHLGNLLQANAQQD
Excerpt: This construct determines the ability of a test compound to inhibit tyrosine kinase activity. A construct (VEGF-R2D50) of the cytosolic domain of human vascular endothelial growth factor receptor 2 (VEGF-R2) lacking the 50 central residues of the 68 residues of the kinase insert domain was expressed in a baculovirus/insect cell system. Of the 1356 residues of full-length VEGF-R2, VEGF-R2D50 contains residues 806-939 and 990-1171, and also one point mutation (E990V) within the kinase insert domain relative to wild-type VEGF-R2. Autophosphorylation of the purified construct was performed by incubation of the enzyme at a concentration of […] in the presence of 3 mM ATP and 40 mM MgCl2 in 100 mM HEPES, pH 7.5, containing 5% glycerol and 5 mM DTT, at 4° C. for 2 h. […] See Parast et al., Biochemistry, 37, 16788-16801 (1998).
The production of ADP from ATP that accompanies phosphoryl transfer was coupled to oxidation of NADH using phosphoenolpyruvate (PEP) and a system having pyruvate kinase (PK) and lactic dehydrogenase (LDH). The oxidation of NADH was monitored by following the decrease of absorbance at 340 nm (e340=6.22 cm^−1 mM^−1) using a Beckman DU 650 spectrophotometer. Assay conditions for phosphorylated VEGF-R2D50 (indicated as FLVK-P in the tables below) were the following: 1 mM PEP; […]; 50 units of LDH/mL; 20 units of PK/mL; 5 mM DTT; 5.1 mM poly(E4Y1); 1 mM ATP; and 25 mM MgCl2 in 200 mM HEPES, pH 7.5. Assay conditions for unphosphorylated VEGF-R2D50 (indicated as FLVK in the tables) were the following: 1 mM PEP; […]; 50 units of LDH/mL; 20 units of PK/mL; 5 mM DTT; 20 mM poly(E4Y1); 3 mM ATP; and 60 mM MgCl2 and 2 mM MnCl2 in 200 mM HEPES, pH 7.5. Assays were initiated with 5 to 40 nM of enzyme. Ki values were determined by measuring enzyme activity in the presence of varying concentrations of test compounds. The percent inhibition at 50 nm (% inhibition @ 50 nm) was determined by linear least-squares regression analysis of absorbance as a function of time. The binding inhibitions were fitted to equation as described by Morrison. The data were analyzed using Enzyme Kinetic and Kaleidagraph software.

[2] = test system: human umbilical vein endothelial cells (HUVEC); assay: HUVEC+VEGF Proliferation Assay; assay type: cell-based; details: VEGF-stimulated proliferation, final VEGF 6 ng/mL, 72 hours, MTT dye reduction
Protocol: This assay determines the ability of a test compound to inhibit the growth factor-stimulated proliferation of human umbilical vein endothelial cells (“HUVEC”). HUVEC cells (passage 3-4, Clonetics, Corp.) were thawed into EGM2 culture medium (Clonetics Corp) in T75 flasks. Fresh EGM2 medium was added to the flasks 24 hours later. Four or five days later, cells were exposed to another culture medium (F12K medium supplemented with 10% fetal bovine serum (FBS), […] endothelial cell growth supplement (ECGS), and 0.1 mg/mL heparin). Exponentially-growing HUVEC cells were used in experiments thereafter. Ten to twelve thousand HUVEC cells were plated in 96-well dishes in […] of rich, culture medium (described above). The cells were allowed to attach for 24 hours in this medium. The medium was then removed by aspiration and […] of starvation media (F12K+1% FBS) was added to each well. After 24 hours, […] of test agent dissolved in 1% DMSO in starvation medium or this vehicle alone was added into each treatment well; the final DMSO concentration was 0.1%. One hour later, […] of VEGF (30 ng/mL) in starvation media was added to all wells except those containing untreated controls; the final VEGF concentration was 6 ng/mL. Cellular proliferation was quantified 72 hours later by MTT dye reduction, at which time cells were exposed for 4 hours MTT (Promega Corp.). Dye reduction was stopped by addition of a stop solution (Promega Corp.) and absorbance at 595 nm was determined on a 96-well spectrophotometer plate reader.

Row | pKi [1] | Compound | pIC50 [2]
1 | 8.00 to 9.00 | COCCNC(=O)c1cccc2cc(Oc3ccnc4cc(C(=O)N5CC[C@@H](N(C)C)C5)sc34)ccc12 [Example 11, 6-[(2-{[(3R)-3-(Dimethylamino)pyrrolidin-1-yl]carbonyl}thieno[3,2-b]pyridin-7-yl)oxy]-N-(2-methoxyethyl)-1-naphthamide] | 
2 | 8.00 to 9.00 | CNC(=O)c1cccc2cc(Oc3ccnc4cc(OCCN5CCCCC5)ccc34)ccc12 [Example 46, 6-[7-(2-Piperidin-1-yl-ethoxy)-quinolin-4-yloxy]-naphthalene-1-carboxylic Acid Methylamide] | > 9.00
3 | < 8.00 | O=C(NCCCN1CCCCC1)c1cccc2cc(Oc3ccnc4ccsc34)ccc12 [Example 36, 6-(Thieno[3,2-b]pyridin-7-yloxy)-naphthalene-1-carboxylic acid (3-piperidin-1-yl-propyl)-amide] | 
4 | > 9.00 | CNC(=O)c1cccc2cc(Oc3ccnc4cc(C(=O)N5CC[C@H](OC)C5)sc34)ccc12 [Example 3, 6-[(2-{[(3S)-3-methoxypyrrolidin-1-yl]carbonyl}thieno[3,2-b]pyridin-7-yl)oxy]-N-methyl-1-naphthamide] | > 9.00
5 | > 9.00 | CNC(=O)c1cccc2cc(Oc3ccnc4cc(C(=O)N(C)CCN(C)C)sc34)ccc12 [Example 6, N-[2-(Dimethylamino)ethyl]-N-methyl-7-({5-[(methylamino)carbonyl]-2-naphthyl}oxy)thieno[3,2-b]pyridine-2-carboxamide] | < 8.00
6 |  | CCCCNC(=O)c1cccc2cc(Oc3ccnc4cc(O)ccc34)ccc12 [Example 48, 6-(7-Hydroxy-quinolin-4-yloxy)-naphthalene-1-carboxylic Acid Butylamide] | 8.00 to 9.00
7 | < 8.00 | O=C(NCCN1CCOCC1)c1cccc2cc(Oc3ncnc4ccsc34)ccc12 [Example 52, N-(2-Morpholin-4-ylethyl)-6-(thieno[3,2-d]pyrimidin-4-yloxy)-1-naphthamide] | 
8 | < 8.00 | O=C(NCCCN1CCCC1)c1cccc2cc(Oc3ccnc4ccsc34)ccc12 [Example 37, 6-(Thieno[3,2-b]pyridin-7-yloxy)-naphthalene-1-carboxylic acid (3-pyrrolidin-1-yl-propyl)-amide] | 
9 | > 9.00 | Cn1ccnc1-c1cc2nccc(Oc3ccc4c(C(=O)NCCCN5CCOCC5)cccc4c3)c2s1 [Example 30, 6-[2-(1-Methyl-1H-imidazol-2-yl)-thieno[3,2-b]pyridin-7-yloxy]-naphthalene-1-carboxylic acid (3-morpholin-4-yl-propyl)-amide] | > 9.00
10 | 8.00 to 9.00 | CNC(=O)c1cccc2cc(Oc3ccnc4cc(C(=O)N(C)CCO)sc34)ccc12 [Example 8, N-(2-Hydroxyethyl)-N-methyl-7-({5-[(methylamino)carbonyl]-2-naphthyl}oxy)thieno[3,2-b]pyridine-2-carboxamide] | < 8.00
11 |  | CNC(=O)c1cccc2c(F)c(Oc3ccnc4cc(C(=O)N(C)C)sc34)ccc12 [Example 2, 7-({1-Fluoro-5-[(methylamino)carbonyl]-2-naphthyl}oxy)-N,N-dimethylthieno[3,2-b]pyridine-2-carboxamide] | > 9.00
12 | > 9.00 | O=C(NCCN1CCOCC1)c1cccc2cc(Oc3ccnc4cc(C(=O)N5CC[C@@H](O)C5)sc34)ccc12 [Example 13, 6-[(2{[(3R)-3-Hydroxypyrrolidin-1-yl]carbonyl}thieno[3,2-b]pyridin-7-yl)oxy]-N-(2-morpholin-4-ylethyl)-1-naphthamide] | 8.00 to 9.00
13 | 8.00 to 9.00 | CNC(=O)c1cccc2cc(Oc3ccnc4cc(OC)ccc34)ccc12 [Example 43, 6-(7-Methoxy-quinolin-4-yloxy)-naphthalene-1-carboxylic Acid Methylamide] | 8.00 to 9.00
14 | > 9.00 | O=C(Nc1ccc(N2CCC(O)CC2)nc1)c1cccc2cc(Oc3ccnc4ccsc34)ccc12 [Example 34, 6-(Thieno[3,2-b]pyridin-7-yloxy)-naphthalene-1-carboxylic acid (4-hydroxy-3,4,5,6-tetrahydro-2H-[1,2′]bipyridinyl-5′-yl)-amide] | 8.00 to 9.00
15 | > 9.00 | CN(C)[C@@H]1CCN(C(=O)c2cc3nccc(Oc4ccc5c(C(=O)NC6CC6)cccc5c4)c3s2)C1 [Example 9, N-Cyclopropyl-6-[(2-{[(3R)-3-(dimethylamino)pyrrolidin-1-yl]carbonyl}thieno[3,2-b]pyridin-7-yl)oxy]-1-naphthamide] | 
16 | 8.00 to 9.00 | CNC(=O)c1cccc2cc(Oc3ccnc4cc(C(=O)N5CC[C@@H](N(C)C)C5)sc34)ccc12 [Example 5, 6-[(2-{[(3R)-3-(dimethylamino)pyrrolidin-1-yl]carbonyl}thieno[3,2-b]pyridin-7-yl)oxy]-N-methyl-1-naphthamide] | 8.00 to 9.00
17 | 8.00 to 9.00 | O=C(NCCCN1CCOCC1)c1cccc2cc(Oc3ccnc4ccsc34)ccc12 [Example 39, 6-(Thieno[3,2-b]pyridin-7-yloxy)-naphthalene-1-carboxylic acid (3-morpholin-4-yl-propyl)-amide] | 8.00 to 9.00
18 | > 9.00 | O=C(NCCCN1CCOCC1)c1cccc2cc(Oc3ccnc4cc(C(=O)N5CCC5)sc34)ccc12 [Example 32, 6-[2-(Azetidine-1-carbonyl)-thieno[3,2-b]pyridin-7-yloxy]-naphthalene-1-carboxylic acid (3-morpholin-4-yl-propyl)-amide] | 8.00 to 9.00
19 | > 9.00 | O=C(NCCN1CCOCC1)c1cccc2cc(Oc3ccnc4cc(C(=O)N5CCC5)sc34)ccc12 [Example 31, 6-[2-(Azetidine-1-carbonyl)-thieno[3,2-b]pyridin-7-yloxy]-naphthalene-1-carboxylic acid (2-morpholin-4-yl-ethyl)-amide] | 8.00 to 9.00
20 | 8.00 to 9.00 | COc1ccc2c(Oc3ccc4c(C(=O)NC(C)C)cccc4c3)ccnc2c1 [Example 50, 6-(7-Methoxy-quinolin-4-yloxy)-naphthalene-1-carboxylic Acid Isopropylamide] | < 8.00
21 | > 9.00 | CNC(=O)c1cccc2cc(Oc3ccnc4cc(C(=O)N(C)C)sc34)ccc12 [Example 4, N,N-Dimethyl-7-({5-[(methylamino)carbonyl]-2-naphthyl}oxy) thieno[3,2-b]pyridine-2-carboxamide] | 8.00 to 9.00
22 |  | CCCCNC(=O)c1cccc2cc(Oc3ccnc4cc(OC)ccc34)ccc12 [Example 47, 6-(7-Methoxy-quinolin-4-yloxy)-naphthalene-1-carboxylic Acid Butylamide] | < 8.00
23 | > 9.00 | CNCC1CCN(C(=O)c2cc3nccc(Oc4ccc5c(C(=O)NC)cccc5c4)c3s2)C1 (stereo not drawn) [Example 10, N-Methyl-6-{[2-({3-[(methylamino)methyl]pyrrolidin-1-yl}carbonyl)thieno[3,2-b]pyridin-7-yl]oxy}-1-naphthamide] | 
24 | < 8.00 | CN(C)CCNC(=O)c1cccc2cc(Oc3ccnc4ccsc34)ccc12 [Example 41, 6-(Thieno[3,2-b]pyridin-7-yloxy)-naphthalene-1-carboxylic acid (2-dimethylamino-ethyl)-amide] | 
25 | < 8.00 | CNC(=O)c1cccc2cc(Oc3ccnc4cc(O)ccc34)ccc12 [Example 44, 6-(7-Hydroxy-quinolin-4-yloxy)-naphthalene-1-carboxylic Acid Methylamide] | 
